Data set [1] concerns oxycodone self-administration in rats. The experiment in a line: Intravenous oxycodone self-administration, fixed ratio FR3. Particulars: for oxycodone self-administration, Mean Diff., Vehicle vs. treatment: FR3. Type of data set: in vivo, Sprague-Dawley rats. The procedure:
Animals. Adult male Sprague-Dawley rats (300-325 g at arrival) from Envigo (Indiana, USA) were used. Upon arrival, rats were single housed in standard cages with filter tops, and they were acclimated for at least 7 days before any treatment. All rats were examined and handled prior to initiation of the study. During the study, 12 h/12 h light/dark cycles were maintained. The room temperature was 21-23° C. with a relative humidity maintained at 30-70%. Water was provided ad libitum for the duration of the study.
Test Article(s) • Oxycodone (0.05 mg/kg/infusion; Sigma-Aldrich, USA) was dissolved in saline and infused at a rate of 0.1 ml/infusion. • Compound 1 (0.3, 1, and 3 mg/kg) was formulated in 10% Solutol HS15+90% (10% aqueous hydroxypropyl)-β-cyclodextrin and injected IP 30 minutes prior to test at a dose volume of 2 ml/kg. In the reinstatement study only 3 mg/kg was used. • MTEP (3-((2-Methyl-4-thiazolyl)ethynyl)pyridine; 3 mg/kg), was dissolved in saline and injected IP 30 minutes prior to testing at a dose volume of 2 ml/kg.
Apparatus. Intravenous drug self-administration took place in experimental chambers within sound-attenuating cubicles equipped with an exhaust fan (Med Associates, VT). Each chamber contains two response levers situated on one wall of the chamber. A stimulus light was located above each lever and a house light was located at the top of the opposite wall. A pellet receptacle was situated between the two levers for delivery of food pellets (Bio-Serv's Dustless Precision Pellets #F0165, 45 mg). An infusion pump mounted above each chamber delivers drug solutions via Tygon tubing connected to a single channel fluid swivel, which was mounted on a balance arm above the operant chamber. The output of the liquid swivel was attached to the externalized terminus of the intravenous catheter.
Surgery and catheter maintenance: The rats were first implanted with jugular vein catheters (Access Technologies, USA). After the surgery, catheters were flushed daily with 0.2 ml of heparin-Enrofloxacin solution to avoid clogging and to ensure smooth drug infusion. The flushing liquid was made in 50 ml volume units which contained 1500 U Heparin and 320 mg Enrofloxacin (Baytril®). The solution was stored in sterilized vials in a 4° C. refrigerator. After the rats recovered from catheterization surgery, they were food-restricted (about 15 or 20 g/day) and maintained at ˜85% of their free-feeding, age-matched control body weight throughout the study. Starting from the 3rd day of food restriction, rats were trained to press the active lever (one of the two levers) to obtain food. During the study, Methohexital sodium (Brevital®, Henry Schein Animal Health, USA) was used twice for catheter evaluation and thereby for indirect infusion confirmation. Brevital is a short-acting barbiturate that, when infused through the catheter, produces overt signs of sedation within seconds. […] The rats were first implanted with jugular vein catheters (Access Technologies, USA). After the surgery, catheters were flushed daily with 0.2 ml of heparin-Enrofloxacin solution to avoid clogging and to ensure smooth drug infusion. The flushing liquid was made in 50 ml volume units which contained 1500 U Heparin and 320 mg Enrofloxacin (Baytril®). The solution was stored in sterilized vials in a 4° C. refrigerator. After the rats recovered from catheterization surgery, they were food-restricted (about 15 or 20 g/day) and maintained at ˜85% of their free-feeding, age-matched control body weight throughout the study. Starting from the 3rd day of food restriction, rats were trained to press the active lever (one of the two levers) to obtain food. During the study, Methohexital sodium (Brevital®, Henry Schein Animal Health, USA) was used a few times for catheter evaluation and thereby for indirect infusion confirmation. Brevital is a short-acting barbiturate that, when infused through the catheter, produces overt signs of sedation within seconds. […]

Data set [2] is described as follows: Phase 1 multiple ascending dose study, exposure. It is filed as in vivo, healthy subjects. To be noted: 100 mg/day (50 mg twice per day) oral; study suspended at day 9 after dosage of 6 patients. The text has this: Example 5 presents the protocol for a suspended, multiple ascending dose (MAD) study to evaluate the safety, tolerability, and pharmacokinetics (PK) of Compound 1 in healthy subjects. In the following paragraphs, Example 5 is described in the future tense for sake of brevity; the study was suspended at day 9 after dosage of 6 patients. […] Example 6 presents the protocol for a planned, amended Phase 1 MAD study.
Study Objectives and Endpoints—See Table 12 for Study Objectives and Endpoints. There will be up to 4 dose cohorts, and within each cohort subjects will be randomly assigned to receive either active drug or placebo. Study subjects will be administered active drug or placebo twice daily for 14 days (note: only the AM dose is administered on Day 14).
Each subject will be randomly assigned to 1 of the following cohorts: Cohort 1: Group 1 (6 subjects): 50 mg of Compound 1 twice daily (bid); Group 2 (2 subjects): placebo (matching Compound 1) bid. Cohort 2: Group 3 (6 subjects): 100 mg of Compound 1 bid; Group 4 (2 subjects): placebo (matching Compound 1) bid. Cohort 3: Group 5 (6 subjects): 150 mg of Compound 1 bid; Group 6 (2 subjects): placebo (matching Compound 1) bid.

Data set [3] relates to cocaine self-administration in rats.
[4] abbreviates: 3 mg/kg IP 30 minutes prior to test.
The mark [5] stands for this setting: 3 mg/kg IP, FR5, 1 hour session.

Like-named read-outs stand apart in the source and are kept apart here.

In the case of `N#Cc1cc(Cl)cc(-c2cc(-c3ccc(F)cn3)ncn2)c1` [Compound 1, 3-chloro-5-[6-(5-fluoropyridin-2-yl)pyrimidin-4-yl]benzonitrile], the “oxycodone self-administration, Mean Diff., Vehicle vs. treatment” value in data set [1] (0.3 mg/kg IP 30 minutes prior to test) was 5.438; in data set [1] (1 mg/kg IP 30 minutes prior to test) it was 6.283; in data set [1] (setting [4]) it was 9.483. In data set [1] (all three doses, 0.3, 1 and 3 mg/kg IP), the “oxycodone self-administration vs vehicle” value is recorded as “significantly attenuated oxycodone self-administration”. The “exposure in healthy subjects” value in data set [2] is reported as “greater than expected exposure”. Besides, the “cocaine self-administration, Mean Diff., Saline vs. treatment” value in data set [3] (1 mg/kg IP 30 min before testing, FR5) worked out at 15.73; in data set [3] (setting [5]) it was 24.3; in data set [3] (10 mg/kg IP 30 min before testing, FR5) it was 27.07. In addition, in data set [3] (all three doses, 1, 3 and 10 mg/kg IP), the “cocaine self-administration vs saline treatment” value is given as “significantly attenuate cocaine self-administration”.

Take `Cc1nc(C#Cc2cccnc2)cs1` [MTEP, 3-((2-Methyl-4-thiazolyl)ethynyl)pyridine]: in data set [1] (3 mg/kg IP), the “self-administered oxycodone infusion vs vehicle treatment” value is “significantly decreased self-administered oxycodone infusion”. Further, the “oxycodone self-administration, Mean Diff., Vehicle vs. treatment” value in data set [1] (setting [4]) came to 7.188. In addition, the “cocaine infusion vs saline treatment” value in data set [3] (3 mg/kg IP) is recorded as “significantly decreased cocaine infusion”. Also, in data set [3] (setting [5]), the “cocaine self-administration, Mean Diff., Saline vs. treatment” value is given as 19.93.

For the origin of these results see US20250249001A1, “METHODS OF TREATING SUBSTANCE USE DISORDER WITH 4-(3-CYANOPHENYL)-6-PYRIDINYLPYRIMIDINE MGLU5 NEGATIVE ALLOSTERIC MODULATORS” (Tempero Bio, Inc., priority 2022, published 2025).
